The target in series [1] is T1, novel mammalian opioid receptor (MSOR, LC132) (Rattus norvegicus, UniProt P35370).
T1 construct: The entire coding region of the receptor cDNA insert was subcloned in to the RcRSV vector; expressed in transfected cells
Type of series: binding.

The test system of series [2] is untransfected COS-7 and Ltk- cells. As to the kind of experiment: Radioligand binding to membranes of untransfected cells (control). The following applies: untransfected COS-7 and Ltk- cell membranes.
The nature of series [3]: Hot plate test of nociception; toe- and tail-pinch reflexes. Type of series: in vivo, mice. As for the experimental part:
Groups of 6-8 male MORO mice (weight=22 g) were administered phosphate buffered saline (open circles) or varying doses of the orphanin peptide. Reaction time represents the time taken for the mice to lick their paws. The hot plate was set to 58° C., and a cutoff time of 60 sec was used. […] (designated by an asterisk). This observation was most likely related to a decrease in locomotor activity and muscle tone.
For orientation: Thermal pain tests record how soon the animal reacts.

Series [4] in a line: Open-field observation of behavioral signs after peptide administration. Type of series: in vivo, mice. The protocol: (§1) For these experiments, the peptide was administered intracerebroventricularly (i.c.v.) and intrathecally (i.t.) in mice. Immediately after peptide administration, mice were placed in transparent boxes in groups of three and behavioral signs recorded. Emphasis was placed on signs indicative of depressant, stimulant and autonomic effects of the peptide (as described by Irwin, 1968, Psychopharmacologia 13: 222). […] The effects of the peptide on horizontal (FIG. 10A) and vertical (FIG. 10B) locomotor activity was measured using Digiscan Animal Activity Monitors (Omnitech, Columbus Ohio). The values for horizontal and vertical locomotor activity represent the total number of interruptions of the horizontal and vertical sensors during the first 10 min following administration of the peptide. Data are shown as the mean ± standard error of the mean.

Series [5] can be described thus: Horizontal and vertical locomotor activity (Digiscan Animal Activity Monitors). Type of series: in vivo, mice. The following applies: i.c.v., 0.1-10 nmol/2 μL/mouse, first 10 min. The protocol:
as §1

In series [6] the target is T2, novel mammalian MSOR opioid receptor (methadone-specific opioid receptor) (rat, UniProt P35370 1-367).
T2 construct: cAMP assays used whole cells; also called LC132; novel mammalian opioid receptor
T2 chain: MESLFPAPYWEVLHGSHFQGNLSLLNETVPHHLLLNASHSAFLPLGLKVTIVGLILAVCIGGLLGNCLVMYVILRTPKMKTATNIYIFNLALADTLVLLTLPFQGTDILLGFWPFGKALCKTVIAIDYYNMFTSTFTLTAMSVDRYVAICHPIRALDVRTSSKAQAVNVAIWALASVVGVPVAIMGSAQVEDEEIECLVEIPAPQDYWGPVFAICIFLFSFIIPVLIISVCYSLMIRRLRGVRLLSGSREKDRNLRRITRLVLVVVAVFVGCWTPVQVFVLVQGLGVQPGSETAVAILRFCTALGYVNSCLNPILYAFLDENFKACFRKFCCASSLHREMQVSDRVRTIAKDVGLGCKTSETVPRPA
As to the kind of experiment: saturation radioligand binding (scintillation proximity assay) to membranes of MSOR-transfected CHO cells (LC-7), Scatchard analysis. Background: Scintillation proximity formats need no separation of bound from free tracer.

The target of series [7] is T2, novel mammalian MSOR opioid receptor …. As to the kind of experiment: cell-based or functional assay.
Series [8] shares this target. Put plainly: assay not described.

T1 sequence (P35370 whole entry): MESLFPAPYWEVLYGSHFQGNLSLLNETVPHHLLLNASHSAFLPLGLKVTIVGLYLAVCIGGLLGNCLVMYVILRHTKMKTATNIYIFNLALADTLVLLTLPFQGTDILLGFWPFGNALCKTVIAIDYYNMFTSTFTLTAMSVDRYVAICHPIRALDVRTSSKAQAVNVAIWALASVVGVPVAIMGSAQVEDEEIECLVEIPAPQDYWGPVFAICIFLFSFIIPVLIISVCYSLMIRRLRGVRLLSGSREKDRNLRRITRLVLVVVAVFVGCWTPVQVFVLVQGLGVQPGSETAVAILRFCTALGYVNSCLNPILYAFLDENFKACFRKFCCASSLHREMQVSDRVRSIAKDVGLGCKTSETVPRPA

On to `C[C@@H](NC(=O)[C@@H](N)Cc1ccc(O)cc1)C(=O)NCC(=O)N(C)[C@@H](Cc1ccccc1)C(=O)NCCO` [DAMGO, Tyr-DAla-Gly-Met-Phe-Gly-ol], for which the “specific binding of the radioactively-labeled opioid agonist or antagonist” value in series [1] was “no specific binding”. As to `CCC12CCN(CC3(O)CC3)C(Cc3ccc(O)cc31)C2(C)C` (centres unmarked) [bremacozine], the “specific binding of the radioactively-labeled opioid agonist or antagonist” value in series [1] is reported as “no specific binding”. In the case of `CN1CC[C@]23c4c5ccc(O)c4O[C@H]2[C@@H](O)CC[C@H]3[C@H]1C5` [dihydromorphine], the “specific binding of the radioactively-labeled opioid agonist or antagonist” value in series [1] is on record as “no specific binding”. As for `CC[C@]12CCN(CC3CC3)[C@H](C(=O)c3ccc(O)cc31)[C@@H]2C` [ethylketocyclazocine], the “specific binding of the radioactively-labeled opioid agonist or antagonist” value in series [1] is “no specific binding”. Take `CCC(=O)C(CC(C)N(C)C)(c1ccccc1)c1ccccc1` (centres unmarked) [methadone]: the “endogenous specific binding of the radioligand” value in series [2] is reported as “no or negligible amounts”. In series [1], the Bmax is reported as 400-450 femtomoles/μg protein and the “specific binding of the radioactively-labeled opioid agonist or antagonist” value was “specific binding was found”. As to `C=CCN1CC[C@]23c4c5ccc(O)c4O[C@H]2C(=O)CC[C@@]3(O)[C@H]1C5` [naloxone], the “endogenous specific binding of the radioligand” value in series [2] was “endogenous low levels of specific”. Take `CC(C)C[C@H](NC(=O)[C@H](CCCCN)NC(=O)[C@H](CCCNC(=N)N)NC(=O)[C@H](C)NC(=O)[C@H](CO)NC(=O)[C@H](CCCCN)NC(=O)[C@H](CCCNC(=N)N)NC(=O)[C@H](C)NC(=O)CNC(=O)[C@@H](NC(=O)[C@H](Cc1ccccc1)NC(=O)CNC(=O)CNC(=O)[C@@H](N)Cc1ccccc1)[C@@H](C)O)C(=O)N[C@@H](C)C(=O)N[C@@H](CC(N)=O)C(=O)N[C@@H](CCC(N)=O)C(=O)O` [orphanin FQ]: the “toe- and tail-pinch reflexes” value in series [3] (all doses tested) is given as “normal”. The inhibition of nociception result in series [3] (i.c.v., all doses except the highest, 10 nmol/mouse) is “No significant inhibition”. Further, the “analgesic effect in hot plate test” value in series [3] (i.c.v., hot plate 58° C., cutoff 60 sec) was “little analgesic effect”. Also, the analgesic effect entry in series [3] (i.t., 2.5-10 nmol/4 μL/animal) is recorded as “No analgesic effect”. Also, in series [3] (i.t., highest dose), the “motor effects at the highest dose” value was “hindlimb paralysis and decrease in locomotor activity”. In series [4], the ataxia result is “ataxia”, the muscle tone entry was “decrease in muscle tone” and the righting reflex result is listed as “loss of righting reflex”. Moreover, in series [4] (i.c.v. and i.t. administration), the “influence on locomotor activity” value is on record as “profound influence on locomotor activity”. Moreover, in series [5], the horizontal locomotion entry is given as “decrease” and the vertical locomotion entry is on record as “decrease”. For the molecule β-endorphin, the “specific binding of the radioactively-labeled opioid agonist or antagonist” value in series [1] is reported as “no specific binding”.

B1: monoiodinated Y14-orphanin FQ (peptide)
peptide: FGGFTGARKSARKYANQ
modifications: monoiodotyrosine at position 14 (125I in the binding assay), made by the chloramine T method
notes: also called I-Y14
What is called Kd is the constant that tells how readily two partners part at equilibrium. The low end stands for a tighter complex, the high end for a looser complex. Turning to B1, the Kd in series [6] was found to be 0.3 nM.

B2: Y14-orphanin FQ (peptide)
peptide: FGGFTGARKSARKYANQ
For the molecule B2, in series [7], the “cAMP inhibition assay in MSOR-transfected CHO cells, EC50” value came to 1 nM.

B3: α-endorphin (peptide)
peptide: YGGFMTSEKSQTPLVT
Take B3: in series [8], the binding result is given as “no binding”.

B4: Leu-Enkephalin (peptide)
peptide: YGGFL
Take B4: the binding result in series [8] is “no binding”.

B5: dynorphin A (peptide)
peptide: YGGFLRRIRPKLKWDNQ
With B5, in series [8], the binding result is given as “no binding”.

B6: dynorphin B (peptide)
peptide: YGGFLRRQFKVVT
As to B6, the binding result in series [8] is listed as “no binding”.

The record behind these values is patent US6406866B1 (OREGON HEALTH SCIENCES UNIVERSITY, dated 2002).
